# Test results from patent publication US12122802B2, “D-allose crystal and production method thereof” (MATSUTANI CHEMICAL INDUSTRY CO., LTD., priority 2019, dated 2024).
# Experiments:
# [1] = repose angle measured by powder tester PT-E (fluidity of anhydrous D-allose crystals); format: physicochemical; details: for Degree of fluidity: drying tests of Table 6, evaluated from repose angle according to Table 4
# Description: The fluidity of the anhydrous D-allose crystals obtained by drying the hydrous crystals obtained in each of Tests Nos. 1 to 12 with an evaporator (30° C., 20 hPa (abs), about 2 hours) as described above was evaluated by the repose angle measured by a powder tester PT-E (manufactured by Hosokawa Micron Corporation). Specifically, a sample was dropped and deposited on a disk, and the inclination angle was measured from three directions to obtain an average value. From the average value, the degree of fluidity was evaluated according to Table 1 in the Japanese Pharmacopoeia, 17th edition, Reference Information G2 physical property-related “Powder Fluidity” (same as the so-called Carr's fluidity index table, shown as Table 4).
# (§1) In order to measure the water content in the crystals obtained by each of the drying methods, drying under reduced pressure under conditions at 70° C. for 18 hours was performed to calculate the water content in the crystals from the weight loss through the drying under reduced pressure. The repose angle was measured by the method described above to determine the degree of fluidity. The yield rate was calculated by the following expression. Yield rate (%)=(D/C)×100 [Expression 4]
# [2] = water content in crystals from weight loss on drying under reduced pressure at 70° C. for 18 hours; format: physicochemical; details: hydrous D-allose crystals (purity 99.9%, water content 17.7%) dried under the named drying conditions
# Description: as §1
# [3] = in vivo; cited from earlier work
# [4] = system: active oxygen in cells; details: cited from earlier work
# [5] = system: cancer cells; details: cited from earlier work
# [6] = particle size distribution by laser diffraction (Mastersizer 3000, dry dispersion unit Aero S); format: physicochemical; details: average of 5 measurements, dispersion pressure 1.0 bar
# Text: The melting point (Tm) in the DSC refers to the melting start temperature of the endothermic peak obtained by DSC measurement (temperature at the extrapolated intersection of the base line and the maximum slope line of the endothermic peak), and the melting enthalpy (ΔH) refers to the area of the endothermic peak (ASTM D3418-15, Standard Test Method for Transition Temperatures and Enthalpies of Fusion and Crystallization of Polymers by Differential Scanning calorimetry). Further, in the present invention, the average particle size refers to the volume-based average particle size d[4,3], which is usually measured with a laser diffraction particle size distribution analyzer.
# Next, the particle size distribution of the anhydrous D-allose crystals of the present invention was examined. Specifically, the anhydrous D-allose crystals obtained in the previous Test Nos. 1 to 5, 7 to 10 and 12, were subjected to measurement of particle size distribution under the measurement conditions shown in Table 7 using “Mastersizer 3000” and a “dry dispersion unit Aero S” manufactured by Malvern Instruments. More specifically, the measurement was repeated 5 times, and the average value of the 5 times measurements was used. No great variability was seen among the 5 times measurement values. The particle size distribution was expressed on a volume basis, and the volume-based average particle size d[4,3] and standard deviation σ were recorded. Also, the coefficient of variation CV=σ/d[4,3] was calculated in order to relatively evaluate the variation in the particle size distribution.
# [7] = aspect ratio of crystals from microscopic picture (Digital microscope VHX-5000, 50x); format: physicochemical
# Text: The “anhydrous D-allose crystals” of the present invention have an extremely large average particle size as described above and are not in a fine needle form, having a characteristic aspect ratio of the crystal. In the present invention, the aspect ratio refers to the ratio of the long diameter to the short diameter of a crystal (short diameter: minimum length of lines passing through the center of gravity of the plane shape of a crystal, long diameter: maximum length of a crystal measured orthogonal to the short diameter). In the present specification, the aspect ratio in a numerical range from A to B (A and B: arbitrary numbers) means that all of the aspect ratios of a specified number (preferably at least 10, for example 10) of crystal particles randomly selected are within the numerical range. Example of random selection of crystal particles includes a method comprising taking a microscopic picture of crystals at 20× to 50× magnification and, from the crystals on the diagonal line drawn from the upper left to the lower right of the microscopic picture taken, selecting 10 crystals with a full body shown in order from the upper left on the diagonal line. Specifically, the aspect ratio is preferably 1.0 to 10.0, more preferably 2.0 to 8.0, still more preferably 2.0 to 7.0. Next, the aspect ratio of the anhydrous D-allose crystals of the present invention was examined. Specifically, a microscopic picture of each of the anhydrous D-allose crystals obtained in the previous Test Nos. 1 to 5, 7 to 10 and 12 were taken using “Digital microscope VHX-5000” manufactured by KEYENCE Corporation (50×magnification). Among the crystals on the diagonal line drawn from the upper left to the lower right of the microscopic picture taken, 10 crystals with a full picture shown were selected in order from the upper left and then the long diameter and the short diameter of each crystal were measured for calculation of the aspect ratio (Long diameter/Short diameter, wherein short diameter refers to minimum length of lines passing through the center of gravity of the plane shape of a crystal, and long diameter refers to maximum length of a crystal measured orthogonal to the short diameter). The minimum value of the aspect ratio was 1.1 and the maximum value was 9.6 (Table 9).
# [8] = drying tests of Table 6, crystals after the named drying conditions
structure (smiles),measurement,setting,value
O=C[C@H](O)[C@H](O)[C@H](O)[C@H](O)CO [Conductive heat transfer drying at 40° C.] [D-allose],Repose angle (degrees),[1]; [8],41.3 degrees
same,Degree of fluidity,[1],Passable (41~45)
same,Water content (%) after drying,[2],0.13%
O=C[C@H](O)[C@H](O)[C@H](O)[C@H](O)CO [Conductive heat transfer drying at 50° C.] [D-allose],Repose angle (degrees),[1]; [8],42 degrees
same,Degree of fluidity,[1],Passable (41~45)
same,Water content (%) after drying,[2],0.099%
O=C[C@H](O)[C@H](O)[C@H](O)[C@H](O)CO [Conductive heat transfer drying at 60° C.] [D-allose],Repose angle (degrees),[1]; [8],41.7 degrees
same,Degree of fluidity,[1],Passable (41~45)
same,Water content (%) after drying,[2],0.18%
O=C[C@H](O)[C@H](O)[C@H](O)[C@H](O)CO [Conductive heat transfer drying at 70° C.] [D-allose],Repose angle (degrees),[1]; [8],44 degrees
same,Degree of fluidity,[1],Passable (41~45)
same,Water content (%) after drying,[2],0.105%
"O=C[C@H](O)[C@H](O)[C@H](O)[C@H](O)CO [Convection heat transfer drying at 40° C., Air supply: 3900 ] [D-allose]",Repose angle (degrees),[1]; [8],41.3 degrees
same,Degree of fluidity,[1],Passable (41~45)
same,Water content (%) after drying,[2],0.14%
"O=C[C@H](O)[C@H](O)[C@H](O)[C@H](O)CO [Convection heat transfer drying at 40° C., Air supply: 6000 ] [D-allose]",Repose angle (degrees),[1]; [8],41.7 degrees
same,Degree of fluidity,[1],Passable (41~45)
same,Water content (%) after drying,[2],0.13%
"O=C[C@H](O)[C@H](O)[C@H](O)[C@H](O)CO [Convection heat transfer drying at 50° C., Air supply: 4700 ] [D-allose]",Repose angle (degrees),[1]; [8],42 degrees
same,Degree of fluidity,[1],Passable (41~45)
same,Water content (%) after drying,[2],0.13%
O=C[C@H](O)[C@H](O)[C@H](O)[C@H](O)CO [D-allose],effect on increase in blood pressure,[3],effect for suppressing an increase in blood pressure
same,effect on generation of active oxygen in cells,[4],effect for suppressing generation of active oxygen in cells
same,effect on growth of cancer cells,[5],effect for suppressing growth of cancer cells
"O=C[C@H](O)[C@H](O)[C@H](O)[C@H](O)CO [Test No. 8, D-allose]",Repose angle (degrees),"[1]; anhydrous crystals of Test Nos. 1 to 12, hydrous crystals dried with evaporator (30° C., 20 hPa (abs), about 2 hours), average of three directions, listed as 8",41.7 degrees
same,"d [4, 3] (volume-based average particle size)",[6]; listed as 8,708 μm
same,Aspect ratio (Long diameter/Short diameter),"[7]; crystal ① of 10 selected, listed as 8",3.5
same,Aspect ratio (Long diameter/Short diameter),"[7]; crystal ② of 10 selected, listed as 8",7.7
same,Aspect ratio (Long diameter/Short diameter),"[7]; crystal ③ of 10 selected, listed as 8",2.0
same,Aspect ratio (Long diameter/Short diameter),"[7]; crystal ④ of 10 selected, listed as 8",3.6
same,Aspect ratio (Long diameter/Short diameter),"[7]; crystal ⑤ of 10 selected, listed as 8",3.1
same,Aspect ratio (Long diameter/Short diameter),"[7]; crystal ⑥ of 10 selected, listed as 8",2.8
same,Aspect ratio (Long diameter/Short diameter),"[7]; crystal ⑦ of 10 selected, listed as 8",3.8
same,Aspect ratio (Long diameter/Short diameter),"[7]; crystal ⑧ of 10 selected, listed as 8",4.7
same,Aspect ratio (Long diameter/Short diameter),"[7]; crystal ⑨ of 10 selected, listed as 8",1.7
same,Aspect ratio (Long diameter/Short diameter),"[7]; crystal ⑩ of 10 selected, listed as 8",3.3
"O=C[C@H](O)[C@H](O)[C@H](O)[C@H](O)CO [Test No. 9, D-allose]",Repose angle (degrees),"[1]; anhydrous crystals of Test Nos. 1 to 12, hydrous crystals dried with evaporator (30° C., 20 hPa (abs), about 2 hours), average of three directions, listed as 9",41.0 degrees
same,"d [4, 3] (volume-based average particle size)",[6]; listed as 9,600 μm
same,Aspect ratio (Long diameter/Short diameter),"[7]; crystal ① of 10 selected, listed as 9",6.2
same,Aspect ratio (Long diameter/Short diameter),"[7]; crystal ② of 10 selected, listed as 9",4.3
same,Aspect ratio (Long diameter/Short diameter),"[7]; crystal ③ of 10 selected, listed as 9",5.7
same,Aspect ratio (Long diameter/Short diameter),"[7]; crystal ④ of 10 selected, listed as 9",3.0
same,Aspect ratio (Long diameter/Short diameter),"[7]; crystal ⑤ of 10 selected, listed as 9",3.5
same,Aspect ratio (Long diameter/Short diameter),"[7]; crystal ⑥ of 10 selected, listed as 9",5.9
same,Aspect ratio (Long diameter/Short diameter),"[7]; crystal ⑦ of 10 selected, listed as 9",4.6
same,Aspect ratio (Long diameter/Short diameter),"[7]; crystal ⑧ of 10 selected, listed as 9",2.6
same,Aspect ratio (Long diameter/Short diameter),"[7]; crystal ⑨ of 10 selected, listed as 9",3.6
same,Aspect ratio (Long diameter/Short diameter),"[7]; crystal ⑩ of 10 selected, listed as 9",1.9
"O=C[C@H](O)[C@H](O)[C@H](O)[C@H](O)CO [Test No. 10, D-allose]",Repose angle (degrees),"[1]; anhydrous crystals of Test Nos. 1 to 12, hydrous crystals dried with evaporator (30° C., 20 hPa (abs), about 2 hours), average of three directions, listed as 10",41.3 degrees
same,"d [4, 3] (volume-based average particle size)",[6]; listed as 10,492 μm
same,Aspect ratio (Long diameter/Short diameter),"[7]; crystal ① of 10 selected, listed as 10",1.6
same,Aspect ratio (Long diameter/Short diameter),"[7]; crystal ② of 10 selected, listed as 10",3.9
same,Aspect ratio (Long diameter/Short diameter),"[7]; crystal ③ of 10 selected, listed as 10",5.6
same,Aspect ratio (Long diameter/Short diameter),"[7]; crystal ④ of 10 selected, listed as 10",2.1
same,Aspect ratio (Long diameter/Short diameter),"[7]; crystal ⑤ of 10 selected, listed as 10",4.0
same,Aspect ratio (Long diameter/Short diameter),"[7]; crystal ⑥ of 10 selected, listed as 10",9.6
same,Aspect ratio (Long diameter/Short diameter),"[7]; crystal ⑦ of 10 selected, listed as 10",2.3
same,Aspect ratio (Long diameter/Short diameter),"[7]; crystal ⑧ of 10 selected, listed as 10",3.3
same,Aspect ratio (Long diameter/Short diameter),"[7]; crystal ⑨ of 10 selected, listed as 10",4.6
same,Aspect ratio (Long diameter/Short diameter),"[7]; crystal ⑩ of 10 selected, listed as 10",5.4
"O=C[C@H](O)[C@H](O)[C@H](O)[C@H](O)CO [Test No. 12, D-allose]",Repose angle (degrees),"[1]; anhydrous crystals of Test Nos. 1 to 12, hydrous crystals dried with evaporator (30° C., 20 hPa (abs), about 2 hours), average of three directions, listed as 12",41.3 degrees
same,"d [4, 3] (volume-based average particle size)",[6]; listed as 12,333 μm
same,Aspect ratio (Long diameter/Short diameter),"[7]; crystal ① of 10 selected, listed as 12",3.1
same,Aspect ratio (Long diameter/Short diameter),"[7]; crystal ② of 10 selected, listed as 12",3.3
same,Aspect ratio (Long diameter/Short diameter),"[7]; crystal ③ of 10 selected, listed as 12",4.2
same,Aspect ratio (Long diameter/Short diameter),"[7]; crystal ④ of 10 selected, listed as 12",3.8
same,Aspect ratio (Long diameter/Short diameter),"[7]; crystal ⑤ of 10 selected, listed as 12",3.6
same,Aspect ratio (Long diameter/Short diameter),"[7]; crystal ⑥ of 10 selected, listed as 12",4.4
same,Aspect ratio (Long diameter/Short diameter),"[7]; crystal ⑦ of 10 selected, listed as 12",4.7
same,Aspect ratio (Long diameter/Short diameter),"[7]; crystal ⑧ of 10 selected, listed as 12",3.7
same,Aspect ratio (Long diameter/Short diameter),"[7]; crystal ⑨ of 10 selected, listed as 12",3.7
same,Aspect ratio (Long diameter/Short diameter),"[7]; crystal ⑩ of 10 selected, listed as 12",1.3
"O=C[C@H](O)[C@H](O)[C@H](O)[C@H](O)CO [Ultra-low humidity drying (20 to 24° C.), D-allose]",Repose angle (degrees),[1]; [8],45.7 degrees
same,Degree of fluidity,[1],Passable (41~45)
same,Water content (%) after drying,[2],0.052%
